According to BigSolDB 2.1:

O=C(O)CCc1nc(-c2ccccc2)c(-c2ccccc2)o1
solubility (mole fraction)
Details | 278.15 K | 283.15 K | 288.15 K | 293.15 K | 298.15 K | 303.15 K | 308.15 K | 313.15 K | 318.15 K | 323.15 K
in DMAc | 0.205 | 0.213 | 0.223 | 0.232 | 0.243 | 0.252 | 0.261 | 0.273 | 0.284 | 0.295
in DMF | 0.136 | 0.146 | 0.154 | 0.164 | 0.174 | 0.186 | 0.197 | 0.207 | 0.219 | 0.232
in DMSO | – | – | – | 0.214 | 0.226 | 0.24 | 0.256 | 0.272 | 0.287 | 0.303
in ethanol | 0.00257 | 0.00315 | 0.00388 | 0.00476 | 0.00592 | 0.00716 | 0.00894 | 0.0112 | 0.014 | 0.0177
in ethyl acetate | 0.00398 | 0.00472 | 0.00558 | 0.00661 | 0.00778 | 0.00925 | 0.011 | 0.0129 | 0.0151 | 0.0178
in methanol | 0.0023 | 0.00282 | 0.00343 | 0.00426 | 0.00523 | 0.00657 | 0.00821 | 0.0103 | 0.013 | 0.0164
in methyl acetate | 0.00533 | 0.00626 | 0.00735 | 0.00867 | 0.0102 | 0.012 | 0.0146 | 0.0167 | 0.0192 | 0.022
in n-butanol | 0.00266 | 0.00328 | 0.00422 | 0.00533 | 0.00663 | 0.008 | 0.0105 | 0.0131 | 0.0164 | 0.0205
in n-butyl acetate | 0.00293 | 0.00347 | 0.00416 | 0.00489 | 0.00593 | 0.00707 | 0.00842 | 0.01 | 0.012 | 0.0143
in n-pentanol | 0.00266 | 0.00349 | 0.00458 | 0.00561 | 0.00701 | 0.00864 | 0.0108 | 0.0134 | 0.0168 | 0.021
in n-pentyl acetate | 0.00274 | 0.00331 | 0.00387 | 0.0046 | 0.0055 | 0.00654 | 0.00782 | 0.00931 | 0.0111 | 0.0132
in n-propanol | 0.00255 | 0.00326 | 0.00414 | 0.00519 | 0.00637 | 0.00794 | 0.01 | 0.0122 | 0.0161 | 0.0201
in n-propyl acetate | 0.0032 | 0.00386 | 0.00463 | 0.00534 | 0.00656 | 0.00781 | 0.00935 | 0.0111 | 0.0132 | 0.0158
